The values that follow come from ChEMBL document CHEMBL5647694, “Novel orally bioavailable EZH1/2 dual inhibitors with greater antitumor efficacy than an EZH2 selective inhibitor” (Cancer Sci, 2017).

Test [1] deals with Ephrin type-A receptor 8 (Homo sapiens) (UniProt P29322). As to the kind of experiment: Inhibition of N-terminal GST-fused human EPHA8 catalytic domain (571 to 924 residues) expressed in baculovirus-infected Sf21 cells using Blk/Lyntide as substrate at 1 uM in presence of ATP by Mobility shift assay.
For test [2], the target named is Glycogen synthase kinase-3 alpha (Homo sapiens) (UniProt P49840). As to the kind of experiment: Inhibition of N-terminal GST-fused full length human GSK3-alpha (1 to 483 residues) expressed in baculovirus expression system using CREBtide-p as substrate at 1 uM in presence of ATP by Mobility shift assay.
In test [3] the target is Calcium/calmodulin-dependent protein kinase type 1 (Homo sapiens) (UniProt Q14012). In words: Inhibition of N-terminal GST-tagged full length human CAMK1a (1 to 370 residues) expressed in baculovirus-infected Sf21 cells using GS peptide as substrate at 1 uM in presence of ATP by Mobility shift assay.
Test [4] deals with Serine/threonine-protein kinase pim-3 (Homo sapiens) (UniProt Q86V86). In words: Inhibition of N-terminal GST-tagged full length human PIM3 (1 to 326 residues) expressed in baculovirus expression system using S6K2 peptide as substrate at 1 uM in presence of ATP by Mobility shift assay.
Test [5] addresses Tyrosine-protein kinase ITK/TSK (Homo sapiens) (UniProt Q08881). As to the kind of experiment: Inhibition of N-terminal GST-fused full length human ITK (2 to 620 residues) expressed in baculovirus-infected Sf21 cells using Srctide as substrate at 1 uM in presence of ATP by Mobility shift assay.
Test [6] deals with Ephrin type-A receptor 3 (Homo sapiens) (UniProt P29320). In words: Inhibition of N-terminal GST-fused human EPHA3 cytoplasmic domain (579 to 983 residues) expressed in baculovirus-infected Sf21 cells using Blk/Lyntide as substrate at 1 uM in presence of ATP by Mobility shift assay.
Test [7] has as its target Insulin receptor-related protein (Homo sapiens) (UniProt P14616). As to the kind of experiment: Inhibition of N-terminal fused human IRR cytoplasmic domain (953 to 1297 residues) expressed in baculovirus-infected Sf21 cells using IRS1 as substrate at 1 uM in presence of ATP by Mobility shift assay.
For test [8], the target named is Protein kinase C beta type (Homo sapiens) (UniProt P05771). In words: Inhibition of N-terminal GST-fused human full length PKC-beta1 (1 to 671 residues ) expressed in baculovirus expression system using PKC peptide as substrate at 1 uM in presence of ATP by Mobility shift assay.
Test [9] has as its target Serine/threonine-protein kinase PLK2 (Homo sapiens) (UniProt Q9NYY3). In words: Inhibition of N-terminal GST-fused full length human PLK2 (1 to 685 residues) expressed in baculovirus expression system using CHK2 peptide as substrate at 1 uM in presence of ATP by IMAP.
Test [10] deals with Glycogen synthase kinase-3 beta (Homo sapiens) (UniProt P49841). In words: Inhibition of N-terminal GST-fused full length human GSK3-beta (1 to 420 residues) expressed in baculovirus expression system using CREBtide-p as substrate at 1 uM in presence of ATP by Mobility shift assay.
Test [11] addresses Inhibitor of nuclear factor kappa-B kinase subunit alpha (Homo sapiens) (UniProt O15111). In words: Inhibition of N-terminal GST-fused full length human IKK-alpha (1 to 745 residues) expressed in baculovirus expression system using IkBalpha peptide as substrate at 1 uM in presence of ATP by IMAP assay.
Test [12] deals with Protein-tyrosine kinase 2-beta (Homo sapiens) (UniProt Q14289). In words: Inhibition of N-terminal GST-tagged full length human PYK2 (1 to 967 residues) expressed in baculovirus-infected Sf21 cells using Blk/Lyntide as substrate at 1 uM in presence of ATP by Mobility shift assay.
In test [13] the target is CDC7/DBF4 (Cell division cycle 7-related protein kinase/Activator of S phase kinase) (Homo sapiens) (UniProt Q9UBU7+O00311). In words: Inhibition of N-terminal GST-tagged full length human CDC7 (1 to 574 residues)/N-terminal GST-tagged ASK (1 to 674 residues) expressed in baculovirus-infected Sf21 cells using MCM2 peptide as substrate at 1 uM in presence of ATP by Mobility shift assay.

The species entered for test [14] is Homo sapiens. As to the kind of experiment: Competitive inhibition of PRC2-EZH2 (unknown origin) assessed as intensity of SAM signal using SAM as substrate at 800 uM by STD-NMR analysis (reference value: 100%). Set-up: scale not given: the % may be the effect or the level left.
The target in test [15] is Serine/threonine-protein kinase TAO2 (Homo sapiens) (UniProt Q9UL54). As to the kind of experiment: Inhibition of N-terminal GST-fused human TAOK2 catalytic domain (1 to 319 residues) expressed in baculovirus expression system using TAOKtide as substrate at 1 uM in presence of ATP by Mobility shift assay.
Test [16] addresses Inhibitor of nuclear factor kappa-B kinase subunit epsilon (Homo sapiens) (UniProt Q14164). In words: Inhibition of N-terminal GST-fused full length human IKK-epsilon(1 to 716 residues) expressed in baculovirus expression system using IkBalpha peptide as substrate at 1 uM in presence of ATP by Mobility shift assay.
The target in test [17] is Protein kinase C theta type (Homo sapiens) (UniProt Q04759). In words: Inhibition of N-terminal GST-fused human full length PKC-theta (1 to 706 residues ) expressed in baculovirus expression system using PKC peptide as substrate at 1 uM in presence of ATP by Mobility shift assay.
For test [18], the target named is Tyrosine-protein kinase Fer (Homo sapiens) (UniProt P16591). As to the kind of experiment: Inhibition of N-terminal GST-fused full length human FER (1 to 822 residues) expressed in baculovirus-infected Sf21 cells using Srctide as substrate at 1 uM in presence of ATP by Mobility shift assay.
In test [19] the target is Epidermal growth factor receptor (Homo sapiens) (UniProt P00533). As to the kind of experiment: Inhibition of N-terminal GST-fused human EGFR cytoplasmic domain (669 to 1210 residues) expressed in baculovirus-infected Sf21 cells using Srctide as substrate at 1 uM in presence of ATP by Mobility shift assay.
Test [20] addresses Insulin receptor (Homo sapiens) (UniProt P06213). As to the kind of experiment: Inhibition of N-terminal fused human INSR catalytic domain (1005 to 1310 residues) expressed in baculovirus-infected Sf21 cells using IRS1 as substrate at 1 uM in presence of ATP by Mobility shift assay.
Test [21] concerns the target Mitogen-activated protein kinase 14 (Homo sapiens) (UniProt Q16539). In words: Inhibition of N-terminal GST-fused truncated human p38alpha (9 to 352 residues) expressed in Escherichia coli expression system using Modified Erktide as substrate at 1 uM in presence of ATP by Mobility shift assay.
For test [22], the target named is Serine/threonine-protein kinase Nek7 (Homo sapiens) (UniProt Q8TDX7). As to the kind of experiment: Inhibition of N-terminal GST-fused full length human NEK7 (1 to 302 residues) expressed in baculovirus expression system using CDK7 peptide as substrate at 1 uM in presence of ATP by Mobility shift assay.
Test [23] deals with Tyrosine-protein kinase Fgr (Homo sapiens) (UniProt P09769). In words: Inhibition of N-terminal GST-fused full length human FGR (1 to 529 residues) expressed in baculovirus-infected Sf21 cells using Srctide as substrate at 1 uM in presence of ATP by Mobility shift assay.

Molecules are shown by their SMILES.

As to `Cc1cc(C)c(CNC(=O)c2cc(Br)c3c(c2C)O[C@@](C)([C@H]2CC[C@H](N(C)C)CC2)O3)c(=O)[nH]1`, the inhibition (commonly the change of the read-out against control, counted positive when it falls) in test [1] is -7%; in [2] it was 1.8%; in test [3], 0.2%; in test [4], 5.7%; in test [5], -5.6%; in test [6], -8.6%. The inhibition in test [7] was -8.8%; in test [8], 6.9%; in [9] it was 11.8%; in [10], -3.3%; in test [11], -0.6%; in test [12] it was 3%. Moreover, the inhibition in test [13] was -5.5%; in [15], -2.8%; in test [16] it was -5.6%; in test [17], 6.6%; in [18], 0.1%; in test [19], -2%. Also, the inhibition is 4.8% in [20], -7.2% in [21], 2.8% in [22] and -4.6% in [23]. Moreover, the Activity in test [14] was determined as 59%.

As to `Cc1cc(C)c(CNC(=O)c2cc(Cl)c3c(c2C)O[C@@](C)([C@H]2CC[C@H](N(C)C)CC2)O3)c(=O)[nH]1` [VALEMETOSTAT], the inhibition was -5.3% in test [1]; 1.9% in test [2]; -2.8% in [3]; 5.9% in test [4]; -5.8% in test [5]; -4.8% in test [6]. Also, the inhibition is -4.6% in test [7]; 1.8% in [8]; 4.8% in test [9]; -7.1% in test [10]; 11.5% in test [11]; 2.8% in test [12]. Also, the inhibition was -6.7% in test [13]; -0.5% in test [15]; -2.8% in test [16]; -0.6% in test [17]; -3.7% in test [18]; -1.8% in test [19]. Besides, the inhibition in test [20] was 0.1%; in [21] it was -8%; in test [22], 1.6%; in test [23] it was -6.5%. Also, the Activity in test [14] amounted to 62%.
